Reference: publication PMC5515279 (2014)

Tests used:
[1] = test system: TA[Q] (DNA, G4) TAGGGTTAGGGTTAGGGTTAGGG; experiment: fluorescence titration; conditions: K+ 0.1 M; 25 mM Tris-HCl pH 7.5, 1 mM EDTA, 18 °C; 0.5 μM compound
[2] = test system: rUA[Q] (RNA, G4) UAGGGUUAGGGUUAGGGUUAGGG; experiment: fluorescence titration; conditions: K+ 0.1 M; 25 mM Tris-HCl pH 7.5, 1 mM EDTA, 18 °C (general conditions)

K11 [1] | binding constant [2] | Kd [1] [nM] | SMILES
– | (1.2 ± 0.2) × 10^6 M^-1 | 37 ± 8 | COc1cc2c(cc1OC)-c1cc3ccc4c(c3c[n+]1CC2)OCO4
(4.1 ± 0.4) × 10^5 M^-1 | – | – | COc1ccc2cc3[n+](cc2c1OC)CCc1cc2c(cc1-3)OCO2

Continued, compound first:

SMILES | K11 [1] | binding constant [2] | Kd [1] [nM]
COc1cc2c(cc1OC)-c1cc3ccc(OC)c(OC)c3c[n+]1CC2 | (4.1 ± 0.4) × 10^5 M^-1 | – | –
Cc1c2[n+](cc3c4c(ccc13)OCO4)CCc1cc3c(cc1-2)OCO3 | (5.1 ± 0.4) × 10^5 M^-1 | – | –
c1c2c(cc3c1OCO3)-c1cc3ccc4c(c3c[n+]1CC2)OCO4 | (1.4 ± 0.5) × 10^6 M^-1 | – | –
